Earlier results as cited in patent publication US9308212B2, “Compositions comprising alprazolam for treating primary insomnia and insomnia associated with anxiety states and process for preparing them” (LABORATORIOS BAGO S.A., priority 2008, dated 2016).

Compound: CO[C@@H]1[C@@H](OC(N)=O)[C@@H](O)[C@H](Oc2ccc3c(O)c(NC(=O)c4ccc(O)c(CC=C(C)C)c4)c(=O)oc3c2C)OC1(C)C [amorphous novobiocine, novobiocine]
- Solubility of the amorphous form relative to the crystalline form: 10 times
